Source: US5160727A, “Tumor cell sensitization method using quinazolinedione derivatives” (priority 1990, dated 1992)
pIC50: −log10 of the molar value. Counter-ions that a name gives are not always drawn. Like-named read-outs stand apart in the source and are kept apart here.

Columns and labels:
Format in all cases: cell-based, murine
P388R cells [1] = assay: Comparative chemosensitization studies in resistant P388R cells; details: for effect of serum proteins on chemosensitizing activity: MDR cells
Procedure: (§1) In performing the studies P388 that were sensitive to adriamycin (P388S) and P388 cells that were resistant to adriamycin (P388/ADR) were exposed to various concentrations of anticancer drug either alone or together with 5 μg/mL of modifier or sensitizer for 72 hours.
(§2) The P388 murine leukemia cells used in obtaining the data set forth in Table I and Table II were obtained from Southern Research Institute (Birmingham, Ala.) and were cultured from ascites fluids of tumor-bearing DMA/2 mice and maintained in Fischer's medium supplemented with 10% horse serum, 10 μM 2-mercaptoethanol, and gentamycin (50 μg/mL). Cells were counted with a Model ZF Coulter Counter (Coulter Electronics, Inc., Hialeah, Fla.). Viability was determined by trypan blue exclusion. The general methodology is described by W. D. Klohs, et al, Cancer Research 46, 4352-4356 (September 1986) and W. D. Klohs, et al, J. Nat'l. Cancer Inst. 75, 353-359 (1985).

P388R cells [2] = assay: Potentiation of adriamycin activity and cell growth in P388 resistant cells (Table II); details: for Degree of ADR Potentiation in P388R: footnote a (drawing 3)
Procedure: as §2, with “The general methodology is described by W. D. Klohs, et al, Cancer Research 46, 4352-4356 (September 1986) and W. D. Klohs, et al, J. Nat'l.” left out, “Inst.” for “Inst. 75, 353-359 (1985).”

MDR P388 cells = assay: Intracellular drug levels in MDR P388 cells; details: mechanism of chemosensitization
P388S cells = assay: 72-hour growth inhibition of drug-sensitive P388S cells by anticancer drug alone or with modifier (Table I); details: for pIC50: Mus musculus, P388/S, 72 h, mean of two experiments in triplicate
Procedure: as §1, §2

P388/ADR cells = assay: 72-hour growth inhibition of adriamycin-resistant P388/ADR cells by anticancer drug alone or with modifier (Table I); details: Mus musculus
Procedure: as §1, §2

[3] = anticancer drug alone, modifier none, mean of two experiments in triplicate, read-out: ID50 (concentration that inhibits 72-hour cell growth by 50%)
[4] = anticancer drug with modifier CsA (cyclosporin A) 5 μg/mL, mean of two experiments in triplicate, read-out: ID50 (concentration that inhibits 72-hour cell growth by 50%)
[5] = anticancer drug with modifier TIOP (tioperidone) 5 μg/mL, mean of two experiments in triplicate, read-out: ID50 (concentration that inhibits 72-hour cell growth by 50%)
[6] = anticancer drug with modifier VER (verapamil) 5 μg/mL, mean of two experiments in triplicate, read-out: ID50 (concentration that inhibits 72-hour cell growth by 50%)
[7] = P388S, anticancer drug alone, modifier none, read-out: ID50 (concentration that inhibits 72-hour cell growth by 50%)
[8] = P388S, anticancer drug with modifier CsA (cyclosporin A) 5 μg/mL, read-out: ID50 (concentration that inhibits 72-hour cell growth by 50%)
[9] = P388S, anticancer drug with modifier TIOP (tioperidone) 5 μg/mL, read-out: ID50 (concentration that inhibits 72-hour cell growth by 50%)
[10] = P388S, anticancer drug with modifier VER (verapamil) 5 μg/mL, read-out: ID50 (concentration that inhibits 72-hour cell growth by 50%)

Row | Structure (SMILES) | effect of serum proteins on chemosensitizing activity (P388R cells [1]) | pIC50 (P388/ADR cells; [3]) | pIC50 (P388/ADR cells; [4]) | pIC50 (P388/ADR cells; [5]) | pIC50 (P388/ADR cells; [6]) | pIC50 (P388S cells; [7]) | pIC50 (P388S cells; [8]) | pIC50 (P388S cells; [9]) | pIC50 (P388S cells; [10]) | further results
1 | CCCCc1oc2ccccc2c1C(=O)c1cc(I)c(OCCN(CC)CC)c(I)c1 [amiodarone, reference compound] | diminished by binding to serum proteins |  |  |  |  |  |  |  |  | 
2 | CCCSc1ccccc1N1CCN(CCCCn2c(=O)[nH]c3ccccc3c2=O)CC1 [Example 1, 3-[4-[4-[2-(propylthio)phenyl]-1-piperazinyl]butyl-2,4-(1H,3H)-quinazolinedione (tioperidone)monohydrochloride] | does not appear to be altered by serum proteins |  |  |  |  |  |  |  |  | potentiating the activity of adriamycin in P388R cells (P388R cells [1]; compared with verapamil, amiodarone and cyclosporin A): superior to all of the other agents; sensitization of P388R cells to vincristine, trimetrexate, and CI-937 (P388R cells [1]; modifier with vincristine, trimetrexate or CI-937): fully sensitized; activity at 5 µM (P388R cells [2]; Mus musculus, P388, test compound at 5 μM, read-out: % of Control Cell Growth): 100%; activity at 10 µM (P388R cells [2]; Mus musculus, P388, test compound at 10 μM, read-out: % of Control Cell Growth): 98%; Degree of ADR Potentiation in P388R (P388R cells [2]; test compound at 5 μM with adriamycin): 20.8; Degree of ADR Potentiation in P388R (P388R cells [2]; test compound at 10 μM with adriamycin): 44.7; effect on intracellular drug levels in MDR P388 cells (MDR P388 cells): increasing the intracellular drug levels; effect on adriamycin activity in drug-sensitive parent P388S cells (P388S cells; modifier with adriamycin): little effect
3 | CC[C@]1(O)C[C@H]2CN(CCc3c([nH]c4ccccc34)[C@@](C(=O)OC)(c3cc4c(cc3OC)N(C=O)[C@H]3[C@@](O)(C(=O)OC)[C@H](OC(C)=O)[C@]5(CC)C=CCN6CC[C@]43[C@@H]65)C2)C1 [Vincristine] |  | 6.26 | 7.57 | 7.66 | 7.52 | 7.68 | 7.68 | 7.70 | 7.68 | 
4 | CNCCNc1ccc2c3c(nn2CCNCCO)-c2c(O)ccc(O)c2C(=O)c13 [CI-937, 7,10-dihydroxy-2-[2-[(2-hydroxyethyl)amino]ethyl]-5-[[2-(methylamino)ethyl]amino]anthra[1,9-cd]pyrazol-6(2H)-one dihydrochloride] |  | 5.24 | 6.82 | 6.88 | 6.28 | 6.84 | 6.87 | 6.84 | 6.83 | 
5 | COc1cccc2c1C(=O)c1c(O)c3c(c(O)c1C2=O)C[C@@](O)(C(=O)CO)C[C@@H]3O[C@H]1C[C@H](N)[C@H](O)[C@H](C)O1 [Adriamycin] |  | 5.11 | 6.71 | 6.76 | 6.15 | 6.81 | 6.83 | 6.82 | 6.82 | 
6 | COc1cc([C@@H]2c3cc4c(cc3[C@@H](O[C@@H]3O[C@@H]5CO[C@@H](C)O[C@H]5[C@H](O)[C@H]3O)[C@H]3COC(=O)[C@H]23)OCO4)cc(OC)c1O [Etoposide] |  |  |  |  |  |  |  |  |  | pIC50 (P388/ADR cells; read-out: ID50 (concentration that inhibits 72-hour cell growth by 50%), P388/ADR, anticancer drug alone, modifier none, mean of two experiments in triplicate): 5.29; pIC50 (P388/ADR cells; read-out: ID50 (concentration that inhibits 72-hour cell growth by 50%), P388/ADR, anticancer drug with modifier CsA (cyclosporin A) 5 μg/mL, mean of two experiments in triplicate): 6.60; pIC50 (P388/ADR cells; read-out: ID50 (concentration that inhibits 72-hour cell growth by 50%), P388/ADR, anticancer drug with modifier TIOP (tioperidone) 5 μg/mL, mean of two experiments in triplicate): 6.36; pIC50 (P388/ADR cells; read-out: ID50 (concentration that inhibits 72-hour cell growth by 50%), P388/ADR, anticancer drug with modifier VER (verapamil) 5 μg/mL, mean of two experiments in triplicate): 6.06; pIC50 (P388S cells; read-out: ID50 (concentration that inhibits 72-hour cell growth by 50%), P388S, anticancer drug alone, modifier none): 7.62; pIC50 (P388S cells; read-out: ID50 (concentration that inhibits 72-hour cell growth by 50%), P388S, anticancer drug with modifier CsA (cyclosporin A) 5 μg/mL): 7.70; pIC50 (P388S cells; read-out: ID50 (concentration that inhibits 72-hour cell growth by 50%), P388S, anticancer drug with modifier TIOP (tioperidone) 5 μg/mL): 7.67; pIC50 (P388S cells; read-out: ID50 (concentration that inhibits 72-hour cell growth by 50%), P388S, anticancer drug with modifier VER (verapamil) 5 μg/mL): 7.70
